Where two headings read alike, the source gives them in different places.

Series [1] deals with rats trained to discriminate between saline and PCP. In words: PCP-like discriminative stimulus effects (substitution for PCP). Type of series: in vivo.
In series [2] the test system is Spraque-Dawley rats. Type of series: in vivo, rat. As to the method: (§1) The terminal 10 cm of the tail was placed into a thermos bottle containing water warmed to 38, 42, 46, 50, 54, or 58° C. The latency in seconds for the animal to remove the tail from the water was used as a measure of nociception.
(§2) Following the assessment of baseline thermal sensitivity, thermal hypersensitivity was produced by a 50 μL injection of 0.1 mg prostaglandin E2 (PGE2) into the terminal 1 cm of the tail. Temperature-effect curves were generated before (baseline) and after (15, 30, 60, 90 and 120 min) the PGE2 injection.
Compounds were administered IP at the same time as PGE2, which was administered 30 min before testing.
(§3) Test Method 1 Data Analysis—The temperature that produced a half-maximal increase in the tail-withdrawal latency (i.e., T10) was calculated from each temperature-effect curve. The T10 was determined by interpolation from a line drawn between the point above and the point below 10 sec on the temperature-effect curve. For these studies, thermal hypersensitivity was defined as a leftward shift in the temperature-effect curve and a decrease in the T10 value. Reversal of thermal hypersensitivity was defined as a return to baseline of the temperature-effect curve and the T10 value and was calculated according to the following equation: […]

In series [3] the test system is Spraque-Dawley rats. In words: Scheduled-controlled responding (operant responding, food presentation). The source says:
(§4) [formula] in which 50%^drug+CCl is the 50% value after compound in animals approximately one week after CCl surgery, 50%^CCl is the 50% value approximately one week after CCl surgery alone, and 50%^baseline is the 50% value before CCl surgery. Maximal effect of 100% reversal represents a return to the mean pre-operative threshold value for subjects in that experimental condition. Test Method 3: Scheduled-Controlled Responding.
Rats were trained under a multiple-cycle procedure during experimental sessions conducted five days each week. Each training cycle consisted of a 1-min pretreatment period followed by a 10-min response period. During the pretreatment period, stimulus lights were not illuminated, and responding had no scheduled consequences. During the response period, the left or right stimulus lights were illuminated (counterbalanced among subjects), the response lever was extended and subjects could respond under a fixed ratio 30 schedule of food presentation. Training sessions consisted of 3 consecutive cycles. Testing sessions were identical to training sessions except that a single dose of drug was administered at the start of the first cycle.
Data analysis. Operant response rates from individual animals were averaged for the three cycles during test sessions and were converted to percent of control response rates using the average rate from the previous training day as the control value (i.e., average of three cycles). Data are presented as the mean (±1 SEM) response rate as a percent of control.

A short description of series [4]: PCP-like effects relative to doses effective in an ischemia model. The note with it: in vivo.
In series [5] the test system is Spraque-Dawley rats. In words: Chronic Constriction Injury-induced tactile hypersensitivity (von Frey). The conditions noted are these: IP, one week after CCl surgery. It counts as in vivo, rat.
Source text: Rats were anesthetized with 3.5% halothane in O2 at 1 L/min and maintained with 1.5% halothane in O2 during surgery. A modified chronic sciatic nerve constriction injury (Mosconi & Kruger, 1996; Bennett & Xie, 1988) was produced by a cutaneous incision and a blunt dissection through the biceps femoris to expose the sciatic nerve. A PE 90 Polyethylene tubing (Intramedic, Clay Adams; Becton Dickinson Co.) cuff (2 mm length) was placed around the sciatic nerve at the level of the mid-thigh. The wound was closed in layers using 4-0 silk suture and wound clips. Testing was conducted 6-10 days after surgery.
Animals were placed in elevated wire cages and allowed 45-60 minutes to acclimate to the testing room. Baseline tactile sensitivity was assessed using a series of calibrated von Frey monofilaments (Stoelting; Wood Dale, Ill.) 0-3 days before surgery. Von Frey monofilaments were applied to the mid-plantar hind paw in sequential ascending or descending order, as necessary, to hover as closely as possible to the threshold of responses. The threshold was indicated by the lowest force that evoked a brisk withdrawal response to the stimuli. Thus, a withdrawal response led to the presentation of the next lighter stimulus and the lack of a withdrawal response led to the presentation of the next stronger stimulus. Rats with baseline thresholds <10 g force were excluded from the study. […] Under cumulative dosing conditions, compounds were administered IP every 30 minutes with the cumulative dose increasing in ½ log unit increments. Tactile hypersensitivity was assessed 20-30 minutes following each drug administration.
Test Method 2 Data Analysis—The 50% threshold values (in gm force) estimated by the Dixon non-parametric test (Chaplan et al, 1994) was calculated and fifteen-grams of force was used as the maximal force. Dose-effect curves were generated for each experimental condition for each rat. Individual tactile hypersensitivity threshold values were averaged to provide a mean (±1 SEM). Reversal of tactile hypersensitivity was defined as a return to baseline tactile sensitivity and was calculated according to the following equation:
as §4

The test system of series [6] is Spraque-Dawley rats. The series is described as follows: Observable signs of sedation and ataxia.
The test system of series [7] is cingulate and retrosplenial cortices of mice and rats. The series is described as follows: Induction of vacuoles (vacuolization) versus behaviorally effective doses. The note with it: in vivo.
Series [8] concerns Spraque-Dawley rats. In words: Prostaglandin E2-induced thermal hypersensitivity, warm-water tail withdrawal, single compound studies. Type of series: in vivo, rat. The note with it: given 30 min before PGE2. As to the method: Ketamine and dizocilpine are high affinity use-dependent NMDA receptor channel blockers, while memantine is a moderate affinity use-dependent NMDA receptor channel blocker. CGS-19755 is a competitive NMDA antagonist and ifenprodil is a […] polyamine antagonist. Test Method 1: Prostaglandin E2-Induced Thermal Hypersensitivity.
as §1, §2
Single compound studies. The ability of drugs to reverse PGE2-induced thermal hypersensitivity was assessed using a single dose time-course procedure. Under this procedure, a single dose of the compound to be tested was administered intraperitoneally (IP), orally (PO) or intranasally (IN) 30 min before the injection of PGE2. […] sensitivity was assessed 30 min after PGE2 injection.
Test Method 1 Data Analysis—The temperature that produced a half-maximal increase in the tail-withdrawal latency (i.e., T10) was calculated from each temperature-effect curve. The T10 was determined by interpolation from a line drawn between the point above and the point below 10 sec on the temperature-effect curve. For these studies, thermal hypersensitivity was defined as a leftward shift in the temperature-effect curve and a decrease in the T10 value. Reversal of thermal hypersensitivity was defined as a return to baseline of the temperature-effect curve and the T10 value and was calculated according to the following equation:
[formula] in which T10^drug+PGE2 is the T10 after a drug in combination with PGE2, T10^PGE2 is the T10 after PGE2 alone, and T10^baseline is the T10 under control conditions. A % MPE value of 100 indicates a complete return to the baseline thermal sensitivity observed without the PGE2 injection. […] Test Method 2: Chronic Constriction Injury

The test system of series [9] is Spraque-Dawley rats. The series is described as follows: Warm-water tail withdrawal combination studies with morphine. Type of series: in vivo, rat. The note with it: 10.0 mg/kg IP, 30 min before testing. As to the method:
as §1
Combination compound studies. […] Compounds were administered IP at the same time 30 min before testing.
as §3

Take `O=c1c2c(c1=O)N(CCP(=O)(O)O)CCCN2` [Compound A, [2-(8,9-Dioxo-2,6-diazabicyclo[5.2.0]non-1(7)-en-2-yl)ethyl]phosphonic acid]: the “substitution for PCP” value in [1] was “did not substitute for PCP”. Also, the “Change from Baseline (T10)” value in series [2] (10.0 mg/kg IP with PGE2, PGE2 + vehicle −5.6) is recorded as −1.5; in series [9], −0.3. Also, the “T10 (temperature producing half-maximal tail-withdrawal latency)” value in series [2] (10 mg/kg IP with PGE2, PGE2 alone 44.8±0.1, vehicle 50.3±0.4) is 48.8±0.2. Further, the “Operant responding: response rate as a percent of control” value in [3] (IP, 3 mg/kg) is reported as 111%; in series [3] (IP, 10 mg/kg), 86%; in series [3] (PO, 10 mg/kg), 112%; in series [3] (PO, 30 mg/kg) it was 97%; in [3] (PO, 100 mg/kg), 100%. The “rates of responding (in words)” value in series [3] (schedule of food presentation, Compound A IP or PO at doses that reversed hypersensitivity) was “did not significantly modify rates of responding”. The “devoid of many PCP-like effects up to doses times higher than those effective in an ischemia model” value in series [4] is 4-10. In addition, the “% Reversal of CCl-induced tactile hypersensitivity” value in series [5] (cumulative dose 1 mg/kg) worked out at 13%; in series [5] (cumulative dose 3 mg/kg) it was 45%; in series [5] (cumulative dose 10 mg/kg, 10 mg/kg) it was 97%. Moreover, the ataxia or sedation result in [6] (at doses needed to relieve pain in preclinical models) is recorded as “did not produce ataxia or sedation”. For the same molecule, the sedation or ataxia entry in series [6] (doses effective in PGE2 test (as high as 178 mg/kg)) is “not associated with sedation or ataxia”; in series [6] (doses used in the CCl-induced tactile hypersensitivity study, IP), “not associated with sedation or ataxia”. Besides, the effectiveness/vacuolization ratio in series [7] was no more than 16. Further, the “% MPE (reversal of PGE2-induced thermal hypersensitivity)” value is on record as −7% in [8] (IP, 1 mg/kg); 66% in [8] (IP, 3 mg/kg); 79% in series [8] (IP, 10 mg/kg, 10 mg/kg); 5% in series [8] (PO, 10 mg/kg); 23% in series [8] (PO, 30 mg/kg); 87% in series [8] (PO, 100 mg/kg, 100 mg/kg).

For the origin of these results see patent publication US7759346B2, “[[2-(amino-3,4-dioxo-1-cyclobuten-1-yl)amino]alkyl]-acid derivatives for the treatment of pain” (priority 2001, dated 2010).
